# Molecular target: T1, AURKC (Aurora C) (Homo sapiens, UniProt Q9UQB9)
# T1 sequence (Q9UQB9 1-309): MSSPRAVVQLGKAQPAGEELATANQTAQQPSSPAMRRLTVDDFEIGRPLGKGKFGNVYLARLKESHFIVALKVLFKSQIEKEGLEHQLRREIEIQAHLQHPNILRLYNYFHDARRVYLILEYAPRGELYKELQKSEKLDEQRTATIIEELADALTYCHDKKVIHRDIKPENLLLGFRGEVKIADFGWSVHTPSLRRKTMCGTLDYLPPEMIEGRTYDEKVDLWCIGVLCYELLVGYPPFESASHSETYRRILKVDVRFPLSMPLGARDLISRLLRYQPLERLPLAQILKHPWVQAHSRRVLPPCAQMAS
# Experiment: High-throughput kinase assay
# Type: biochemical
# Details: 100 nM; read-out: Percent inhibition of kinase activity in vitro, AURKC (Aurora C)
# Procedure: (§1) Screening of Compounds 1-4 against several kinases identified two prominent targets of these compounds as the Aurora A kinase and calcium dependent protein kinase C isoforms α, βI, βII and […] (Tables 1 to 3). IC50s for these two targets were obtained by plotting inhibition levels at 500 nM, 100 nM, 50 nM and 10 nM (FIG. 3). These kinases are directly involved in pathways controlling cell differentiation programs, metastasis signaling, as well as EMT and CSC programming and their overexpression was reported to predict decreased metastasis-free survival.
row,Structure (SMILES),inhibition at 0.1 µM
1,O=c1c2ccccc2[se]n1-c1nc(NC2CC[Se]C2)c2nc[nH]c2n1 (stereo not shown) [Compound 2],0%
2,O=c1c2ccccc2[se]n1-c1nc(N[C@H]2CC[Se]C2)c2nc[nH]c2n1 [Compound 4],0%

# Same assay, conditions: 500 nM; read-out: Percent inhibition of kinase activity in vitro, AURKC (Aurora C)
row,Structure (SMILES),inhibition at 0.5 µM
1,O=c1c2ccccc2[se]n1-c1nc(NC2CC[Se]C2)c2nc[nH]c2n1 (stereo not shown) [Compound 2],11%

# Molecular target: FGFR1 (Homo sapiens, UniProt P11362)
# Experiment: High-throughput kinase assay
# Type: biochemical
# Details: 100 nM; read-out: Percent inhibition of kinase activity in vitro, FGFR1
# Procedure: as §1
# Chain of FGFR1 (P11362 22-822): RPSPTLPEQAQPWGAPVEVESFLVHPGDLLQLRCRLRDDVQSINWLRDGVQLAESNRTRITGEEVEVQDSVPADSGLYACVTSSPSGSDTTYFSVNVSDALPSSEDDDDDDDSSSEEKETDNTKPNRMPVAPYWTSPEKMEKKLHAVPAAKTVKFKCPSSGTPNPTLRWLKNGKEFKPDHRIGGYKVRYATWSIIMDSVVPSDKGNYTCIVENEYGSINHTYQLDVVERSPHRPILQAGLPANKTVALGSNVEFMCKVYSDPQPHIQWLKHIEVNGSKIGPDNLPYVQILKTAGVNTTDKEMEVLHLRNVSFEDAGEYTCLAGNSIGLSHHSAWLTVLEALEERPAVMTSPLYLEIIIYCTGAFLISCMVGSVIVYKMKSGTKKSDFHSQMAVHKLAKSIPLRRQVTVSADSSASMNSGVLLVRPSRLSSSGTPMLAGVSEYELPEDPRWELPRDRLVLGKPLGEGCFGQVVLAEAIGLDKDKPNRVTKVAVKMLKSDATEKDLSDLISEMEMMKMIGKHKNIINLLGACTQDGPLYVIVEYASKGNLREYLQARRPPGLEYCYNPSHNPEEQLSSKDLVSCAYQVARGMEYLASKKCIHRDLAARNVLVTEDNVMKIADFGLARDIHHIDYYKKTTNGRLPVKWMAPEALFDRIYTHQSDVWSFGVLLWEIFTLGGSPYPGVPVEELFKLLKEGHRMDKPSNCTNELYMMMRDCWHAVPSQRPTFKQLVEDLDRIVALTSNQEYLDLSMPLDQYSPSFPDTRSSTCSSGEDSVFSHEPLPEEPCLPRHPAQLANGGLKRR
row,Structure (SMILES),inhibition at 0.1 µM
1,O=c1c2ccccc2[se]n1-c1nc(N[C@H]2CC[Se]C2)c2nc[nH]c2n1 [Compound 4],0%

# Same assay, conditions: 500 nM; read-out: Percent inhibition of kinase activity in vitro, FGFR1
row,Structure (SMILES),inhibition at 0.5 µM
1,O=c1c2ccccc2[se]n1-c1nc(NC2CC[Se]C2)c2nc[nH]c2n1 (stereo not shown) [Compound 2],0%

# Molecular target: MET (cMet) (Homo sapiens, UniProt P08581)
# Experiment: High-throughput kinase assay
# Type: biochemical
# Details: 100 nM; read-out: Percent inhibition of kinase activity in vitro, MET (cMet)
# Procedure: as §1
# Chain of MET (cMet) (P08581 25-1390): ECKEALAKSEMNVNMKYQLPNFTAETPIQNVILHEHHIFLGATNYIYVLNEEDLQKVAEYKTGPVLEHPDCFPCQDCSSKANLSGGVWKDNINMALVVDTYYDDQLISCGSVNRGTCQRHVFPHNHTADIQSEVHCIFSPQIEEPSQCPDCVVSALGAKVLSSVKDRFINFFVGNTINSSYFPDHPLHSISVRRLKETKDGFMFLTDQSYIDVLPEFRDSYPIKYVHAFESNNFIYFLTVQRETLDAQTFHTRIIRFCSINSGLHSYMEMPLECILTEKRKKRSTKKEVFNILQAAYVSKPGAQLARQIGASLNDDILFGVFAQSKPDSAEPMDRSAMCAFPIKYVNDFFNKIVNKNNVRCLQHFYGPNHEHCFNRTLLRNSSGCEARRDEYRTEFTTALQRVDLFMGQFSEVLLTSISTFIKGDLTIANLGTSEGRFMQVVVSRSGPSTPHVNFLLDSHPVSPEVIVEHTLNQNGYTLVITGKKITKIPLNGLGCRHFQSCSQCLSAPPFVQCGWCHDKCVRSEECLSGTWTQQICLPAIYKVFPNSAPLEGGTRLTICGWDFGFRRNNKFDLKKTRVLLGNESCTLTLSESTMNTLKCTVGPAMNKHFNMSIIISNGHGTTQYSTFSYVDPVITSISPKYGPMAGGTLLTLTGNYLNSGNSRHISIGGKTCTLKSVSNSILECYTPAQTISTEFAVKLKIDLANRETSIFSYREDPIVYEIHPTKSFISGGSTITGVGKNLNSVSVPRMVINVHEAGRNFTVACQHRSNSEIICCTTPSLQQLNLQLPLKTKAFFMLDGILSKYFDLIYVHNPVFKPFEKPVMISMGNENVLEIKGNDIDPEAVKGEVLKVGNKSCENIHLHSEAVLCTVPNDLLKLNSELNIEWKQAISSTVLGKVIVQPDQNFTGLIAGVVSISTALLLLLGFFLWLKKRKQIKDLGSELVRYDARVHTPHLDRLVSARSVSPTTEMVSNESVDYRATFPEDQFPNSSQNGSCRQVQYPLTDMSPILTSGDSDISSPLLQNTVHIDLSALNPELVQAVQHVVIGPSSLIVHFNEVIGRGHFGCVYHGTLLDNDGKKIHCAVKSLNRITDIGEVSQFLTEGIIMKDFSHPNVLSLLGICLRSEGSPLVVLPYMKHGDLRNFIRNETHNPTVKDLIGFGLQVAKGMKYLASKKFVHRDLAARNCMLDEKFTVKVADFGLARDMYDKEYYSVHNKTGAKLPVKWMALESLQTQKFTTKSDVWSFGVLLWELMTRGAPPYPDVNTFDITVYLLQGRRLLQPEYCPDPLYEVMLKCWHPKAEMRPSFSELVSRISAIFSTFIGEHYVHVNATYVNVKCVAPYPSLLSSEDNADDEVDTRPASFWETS
row,Structure (SMILES),inhibition at 0.1 µM
1,O=c1c2ccccc2[se]n1-c1nc(NC2CC[Se]C2)c2nc[nH]c2n1 (stereo not shown) [Compound 2],1%
2,O=c1c2ccccc2[se]n1-c1nc(N[C@H]2CC[Se]C2)c2nc[nH]c2n1 [Compound 4],4%

# Same assay, conditions: 500 nM; read-out: Percent inhibition of kinase activity in vitro, MET (cMet)
row,Structure (SMILES),inhibition at 0.5 µM
1,O=c1c2ccccc2[se]n1-c1nc(NC2CC[Se]C2)c2nc[nH]c2n1 (stereo not shown) [Compound 2],5%

# Molecular target: PDGFRA (PDGFR alpha) (Homo sapiens, UniProt P16234)
# Experiment: High-throughput kinase assay
# Type: biochemical
# Details: 100 nM; read-out: Percent inhibition of kinase activity in vitro, PDGFRA (PDGFR alpha)
# Procedure: as §1
# Chain of PDGFRA (PDGFR alpha) (P16234 24-1089): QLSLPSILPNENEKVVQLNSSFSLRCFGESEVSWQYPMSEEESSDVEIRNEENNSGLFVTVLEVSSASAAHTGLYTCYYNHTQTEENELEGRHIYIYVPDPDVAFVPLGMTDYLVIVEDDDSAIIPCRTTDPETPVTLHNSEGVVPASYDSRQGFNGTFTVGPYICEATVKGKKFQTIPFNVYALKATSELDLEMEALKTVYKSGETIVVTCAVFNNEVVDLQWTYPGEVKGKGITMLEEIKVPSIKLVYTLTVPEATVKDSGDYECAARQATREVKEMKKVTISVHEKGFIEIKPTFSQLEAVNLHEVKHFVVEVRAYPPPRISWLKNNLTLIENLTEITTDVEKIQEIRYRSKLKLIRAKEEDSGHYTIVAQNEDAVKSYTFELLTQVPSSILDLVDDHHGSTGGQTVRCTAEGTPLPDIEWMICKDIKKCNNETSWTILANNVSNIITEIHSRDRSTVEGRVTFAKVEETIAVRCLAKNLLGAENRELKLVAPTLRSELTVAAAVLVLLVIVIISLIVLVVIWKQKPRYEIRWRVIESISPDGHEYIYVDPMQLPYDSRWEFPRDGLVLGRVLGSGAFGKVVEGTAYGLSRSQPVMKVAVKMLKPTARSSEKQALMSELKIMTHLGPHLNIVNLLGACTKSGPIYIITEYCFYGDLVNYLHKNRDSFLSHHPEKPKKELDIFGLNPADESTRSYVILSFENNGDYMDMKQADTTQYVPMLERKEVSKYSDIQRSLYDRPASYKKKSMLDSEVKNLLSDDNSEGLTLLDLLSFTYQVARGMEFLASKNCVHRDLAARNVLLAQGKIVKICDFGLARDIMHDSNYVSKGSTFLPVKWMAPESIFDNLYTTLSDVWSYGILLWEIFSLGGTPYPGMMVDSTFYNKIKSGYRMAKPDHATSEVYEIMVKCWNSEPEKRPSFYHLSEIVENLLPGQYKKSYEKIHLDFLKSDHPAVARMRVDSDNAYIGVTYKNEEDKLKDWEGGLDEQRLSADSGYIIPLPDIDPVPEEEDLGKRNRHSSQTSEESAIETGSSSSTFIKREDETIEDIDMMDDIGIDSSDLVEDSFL
row,Structure (SMILES),inhibition at 0.1 µM
1,O=c1c2ccccc2[se]n1-c1nc(N[C@H]2CC[Se]C2)c2nc[nH]c2n1 [Compound 4],1%

# Same assay, conditions: 500 nM; read-out: Percent inhibition of kinase activity in vitro, PDGFRA (PDGFR alpha)
row,Structure (SMILES),inhibition at 0.5 µM
1,O=c1c2ccccc2[se]n1-c1nc(NC2CC[Se]C2)c2nc[nH]c2n1 (stereo not shown) [Compound 2],4%

# Molecular target: PRKCB1 (PKC beta I) (Homo sapiens, UniProt P05771)
# Experiment: High-throughput kinase assay
# Type: biochemical
# Details: 50 nM; read-out: Percent inhibition of kinase activity in vitro, PRKCB1 (PKC beta I)
# Procedure: as §1
# Chain of PRKCB1 (PKC beta I) (P05771 whole entry): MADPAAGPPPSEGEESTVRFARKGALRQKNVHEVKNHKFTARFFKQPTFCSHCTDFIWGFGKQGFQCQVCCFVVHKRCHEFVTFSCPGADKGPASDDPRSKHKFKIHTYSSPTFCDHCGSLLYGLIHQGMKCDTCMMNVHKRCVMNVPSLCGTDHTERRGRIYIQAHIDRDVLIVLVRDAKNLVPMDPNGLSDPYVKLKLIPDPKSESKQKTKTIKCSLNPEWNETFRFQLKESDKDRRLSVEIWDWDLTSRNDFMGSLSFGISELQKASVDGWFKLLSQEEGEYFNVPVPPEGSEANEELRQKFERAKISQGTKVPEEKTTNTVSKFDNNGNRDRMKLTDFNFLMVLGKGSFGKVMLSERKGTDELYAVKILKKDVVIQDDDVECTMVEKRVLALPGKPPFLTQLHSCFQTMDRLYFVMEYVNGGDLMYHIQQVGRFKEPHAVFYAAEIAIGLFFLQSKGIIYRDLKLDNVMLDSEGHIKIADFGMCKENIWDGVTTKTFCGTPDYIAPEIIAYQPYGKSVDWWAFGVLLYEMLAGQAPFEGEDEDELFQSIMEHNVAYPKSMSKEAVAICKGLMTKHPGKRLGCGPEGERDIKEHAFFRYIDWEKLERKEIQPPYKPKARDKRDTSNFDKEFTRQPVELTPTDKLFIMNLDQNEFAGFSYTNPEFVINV
row,Structure (SMILES),inhibition at 0.05 µM
1,O=c1c2ccccc2[se]n1-c1nc(N[C@H]2CC[Se]C2)c2nc[nH]c2n1 [Compound 4],95%

# Molecular target: PRKCB2 (PKC beta II) (Homo sapiens, UniProt P05771)
# Experiment: High-throughput kinase assay
# Type: biochemical
# Details: 50 nM; read-out: Percent inhibition of kinase activity in vitro, PRKCB2 (PKC beta II)
# Procedure: as §1
row,Structure (SMILES),inhibition at 0.05 µM
1,O=c1c2ccccc2[se]n1-c1nc(N[C@H]2CC[Se]C2)c2nc[nH]c2n1 [Compound 4],95%

# Molecular target: PRKCG (PKC gamma) (Homo sapiens, UniProt P05129)
# Experiment: High-throughput kinase assay
# Type: biochemical
# Details: 50 nM; read-out: Percent inhibition of kinase activity in vitro, PRKCG (PKC gamma)
# Procedure: as §1
row,Structure (SMILES),inhibition at 0.05 µM
1,O=c1c2ccccc2[se]n1-c1nc(N[C@H]2CC[Se]C2)c2nc[nH]c2n1 [Compound 4],47%

# Molecular target: PRKCH (PKC eta) (Homo sapiens, UniProt P24723)
# Experiment: High-throughput kinase assay
# Type: biochemical
# Details: 50 nM; read-out: Percent inhibition of kinase activity in vitro, PRKCH (PKC eta)
# Procedure: as §1
row,Structure (SMILES),inhibition at 0.05 µM
1,O=c1c2ccccc2[se]n1-c1nc(N[C@H]2CC[Se]C2)c2nc[nH]c2n1 [Compound 4],6%

# Molecular target: T2, PRKCZ (PKC zeta) (Homo sapiens, UniProt Q05513)
# T2 sequence (Q05513 1-592): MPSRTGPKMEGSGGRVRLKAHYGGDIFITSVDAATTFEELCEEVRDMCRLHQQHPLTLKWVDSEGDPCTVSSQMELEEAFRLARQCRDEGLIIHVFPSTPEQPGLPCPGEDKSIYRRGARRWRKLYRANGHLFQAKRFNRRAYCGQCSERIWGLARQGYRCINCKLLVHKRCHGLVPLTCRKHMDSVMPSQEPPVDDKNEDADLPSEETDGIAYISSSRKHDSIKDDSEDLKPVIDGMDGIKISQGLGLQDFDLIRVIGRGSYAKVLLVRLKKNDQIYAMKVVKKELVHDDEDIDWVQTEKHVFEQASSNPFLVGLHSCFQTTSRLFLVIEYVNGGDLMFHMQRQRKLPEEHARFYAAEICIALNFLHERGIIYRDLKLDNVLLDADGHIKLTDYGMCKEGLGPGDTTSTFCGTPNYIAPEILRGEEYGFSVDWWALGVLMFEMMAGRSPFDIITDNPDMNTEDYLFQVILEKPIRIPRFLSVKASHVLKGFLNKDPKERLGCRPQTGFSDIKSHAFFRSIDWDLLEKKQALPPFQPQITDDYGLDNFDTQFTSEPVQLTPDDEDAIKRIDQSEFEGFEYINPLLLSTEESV
# Experiment: High-throughput kinase assay
# Type: biochemical
# Details: 50 nM; read-out: Percent inhibition of kinase activity in vitro, PRKCZ (PKC zeta)
# Procedure: as §1
row,Structure (SMILES),inhibition at 0.05 µM
1,O=c1c2ccccc2[se]n1-c1nc(N[C@H]2CC[Se]C2)c2nc[nH]c2n1 [Compound 4],12%

# Molecular target: RAF1 (cRAF) Y340D Y341D (Homo sapiens, UniProt P04049, Y340D/Y341D)
# Experiment: High-throughput kinase assay
# Type: biochemical
# Details: 500 nM; read-out: Percent inhibition of kinase activity in vitro, RAF1 (cRAF) Y340D Y341D
# Procedure: as §1
# Chain of RAF1 (cRAF) Y340D Y341D (P04049 whole entry Y340D/Y341D): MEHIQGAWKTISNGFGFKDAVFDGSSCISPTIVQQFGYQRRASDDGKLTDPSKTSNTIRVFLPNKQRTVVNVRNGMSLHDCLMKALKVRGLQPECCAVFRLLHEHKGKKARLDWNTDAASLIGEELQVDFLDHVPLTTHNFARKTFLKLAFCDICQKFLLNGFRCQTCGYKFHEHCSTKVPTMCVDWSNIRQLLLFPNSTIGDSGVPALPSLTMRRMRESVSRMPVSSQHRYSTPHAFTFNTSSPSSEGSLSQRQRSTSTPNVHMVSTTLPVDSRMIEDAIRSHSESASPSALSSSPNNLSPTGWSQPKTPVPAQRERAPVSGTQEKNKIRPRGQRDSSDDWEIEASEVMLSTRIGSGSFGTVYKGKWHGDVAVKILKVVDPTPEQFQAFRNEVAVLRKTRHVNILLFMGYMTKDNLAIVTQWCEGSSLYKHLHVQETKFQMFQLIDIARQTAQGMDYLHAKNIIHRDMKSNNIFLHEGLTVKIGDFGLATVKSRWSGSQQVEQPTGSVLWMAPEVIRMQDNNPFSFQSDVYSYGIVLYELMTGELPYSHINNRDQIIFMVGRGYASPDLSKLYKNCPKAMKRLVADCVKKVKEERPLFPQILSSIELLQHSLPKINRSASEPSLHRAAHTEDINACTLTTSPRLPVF
row,Structure (SMILES),inhibition at 0.5 µM
1,O=c1c2ccccc2[se]n1-c1nc(NC2CC[Se]C2)c2nc[nH]c2n1 (stereo not shown) [Compound 2],0%

# Molecular target: SRC (Homo sapiens, UniProt P12931)
# Experiment: High-throughput kinase assay
# Type: biochemical
# Details: 100 nM; read-out: Percent inhibition of kinase activity in vitro, SRC
# Procedure: as §1
# Chain of SRC (P12931 whole entry): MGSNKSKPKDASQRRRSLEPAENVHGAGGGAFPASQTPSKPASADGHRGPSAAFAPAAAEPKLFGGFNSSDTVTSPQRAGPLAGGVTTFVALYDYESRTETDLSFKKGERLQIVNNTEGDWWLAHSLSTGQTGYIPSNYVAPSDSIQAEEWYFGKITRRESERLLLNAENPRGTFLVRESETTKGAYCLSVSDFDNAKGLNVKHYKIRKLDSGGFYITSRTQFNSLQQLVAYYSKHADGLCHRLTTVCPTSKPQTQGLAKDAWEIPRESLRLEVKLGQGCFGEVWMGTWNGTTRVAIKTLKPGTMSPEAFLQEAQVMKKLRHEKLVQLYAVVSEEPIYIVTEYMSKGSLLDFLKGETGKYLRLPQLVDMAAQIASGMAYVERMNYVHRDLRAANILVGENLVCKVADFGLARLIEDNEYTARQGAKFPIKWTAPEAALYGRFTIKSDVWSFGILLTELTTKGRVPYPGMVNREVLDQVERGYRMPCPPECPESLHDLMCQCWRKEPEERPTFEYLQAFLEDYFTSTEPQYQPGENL
row,Structure (SMILES),inhibition at 0.1 µM
1,O=c1c2ccccc2[se]n1-c1nc(NC2CC[Se]C2)c2nc[nH]c2n1 (stereo not shown) [Compound 2],4%
2,O=c1c2ccccc2[se]n1-c1nc(N[C@H]2CC[Se]C2)c2nc[nH]c2n1 [Compound 4],4%

# Same assay, conditions: 500 nM; read-out: Percent inhibition of kinase activity in vitro, SRC
row,Structure (SMILES),inhibition at 0.5 µM
1,O=c1c2ccccc2[se]n1-c1nc(NC2CC[Se]C2)c2nc[nH]c2n1 (stereo not shown) [Compound 2],7%

# Molecular target: SYK (Homo sapiens, UniProt P43405)
# Experiment: High-throughput kinase assay
# Type: biochemical
# Details: 100 nM; read-out: Percent inhibition of kinase activity in vitro, SYK
# Procedure: as §1
row,Structure (SMILES),inhibition at 0.1 µM
1,O=c1c2ccccc2[se]n1-c1nc(NC2CC[Se]C2)c2nc[nH]c2n1 (stereo not shown) [Compound 2],2%
2,O=c1c2ccccc2[se]n1-c1nc(N[C@H]2CC[Se]C2)c2nc[nH]c2n1 [Compound 4],6%

# Same assay, conditions: 500 nM; read-out: Percent inhibition of kinase activity in vitro, SYK
row,Structure (SMILES),inhibition at 0.5 µM
1,O=c1c2ccccc2[se]n1-c1nc(NC2CC[Se]C2)c2nc[nH]c2n1 (stereo not shown) [Compound 2],9%

# Molecular target: T3, TGFBR1 (ALK5) (Homo sapiens, UniProt P36897)
# T3 sequence (P36897 34-503): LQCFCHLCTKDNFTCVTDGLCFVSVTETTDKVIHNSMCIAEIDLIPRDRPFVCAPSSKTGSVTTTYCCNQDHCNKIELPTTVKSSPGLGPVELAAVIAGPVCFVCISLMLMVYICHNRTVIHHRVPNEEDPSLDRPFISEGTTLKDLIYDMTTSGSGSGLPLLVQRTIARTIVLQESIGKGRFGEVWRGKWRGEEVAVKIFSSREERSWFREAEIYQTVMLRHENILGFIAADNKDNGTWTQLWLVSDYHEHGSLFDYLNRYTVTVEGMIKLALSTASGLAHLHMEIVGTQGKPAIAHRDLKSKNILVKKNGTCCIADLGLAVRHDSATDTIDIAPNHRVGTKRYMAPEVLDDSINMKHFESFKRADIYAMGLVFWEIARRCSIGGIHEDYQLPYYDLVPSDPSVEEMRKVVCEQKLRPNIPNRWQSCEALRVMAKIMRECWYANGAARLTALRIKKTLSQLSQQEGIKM
# Experiment: High-throughput kinase assay
# Type: biochemical
# Details: 100 nM; read-out: Percent inhibition of kinase activity in vitro, TGFBR1 (ALK5)
# Procedure: as §1
row,Structure (SMILES),inhibition at 0.1 µM
1,O=c1c2ccccc2[se]n1-c1nc(NC2CC[Se]C2)c2nc[nH]c2n1 (stereo not shown) [Compound 2],0%
2,O=c1c2ccccc2[se]n1-c1nc(N[C@H]2CC[Se]C2)c2nc[nH]c2n1 [Compound 4],0%

# Same assay, conditions: 500 nM; read-out: Percent inhibition of kinase activity in vitro, TGFBR1 (ALK5)
row,Structure (SMILES),inhibition at 0.5 µM
1,O=c1c2ccccc2[se]n1-c1nc(NC2CC[Se]C2)c2nc[nH]c2n1 (stereo not shown) [Compound 2],0%
